Source: PubChem BioAssay (NCI)
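96-well plates; 48 h exposure; 5 concentrations. Endpoints by linear interpolation between flanking doses. Not reached: highest tested concentration assigned. At the GI50, growth is halved. At the TGI there is no net growth.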

What was measured:
Test in all cases: NCI-60 cell line screen, 48 h
[1] = tested on: SK-OV-3 ovarian
[2] = tested on: MDA-MB-435
[3] = tested on: HOP-92 NSCLC
[4] = tested on: HL-60(TB) leukemia
[5] = tested on: NCI-H23 lung
[6] = tested on: U251 CNS
[7] = tested on: COLO 205 colon
[8] = tested on: HCC-2998 colon
[9] = tested on: BT-549 breast
[10] = tested on: DU-145 prostate

| SMILES | GI50 [1] [µM] | TGI [1] [µM] | GI50 [2] [µM] | TGI [2] [µM] | GI50 [3] [µM] | TGI [3] [µM] | GI50 [4] [µM] | TGI [4] [µM] | GI50 [5] [µM] | TGI [5] [µM] | GI50 [6] [µM] | TGI [6] [µM] | GI50 [7] [µM] | TGI [7] [µM] | GI50 [8] [µM] | TGI [8] [µM] | GI50 [9] [µM] | TGI [9] [µM] | GI50 [10] [µM] | TGI [10] [µM] |
| --- | --- | --- | --- | --- | --- | --- | --- | --- | --- | --- | --- | --- | --- | --- | --- | --- | --- | --- | --- | --- |
| C=C1CC[C@@]2(C#N)[C@H]3[C@H](CC[C@@H]2C)[C@@H](C)C[C@@H](CC(C)(C)C#N)[C@H]13 | 6.6 | 77.9 | 2.06 | 95.7 | 0.2 | 0.68 | 2.48 | 29.5 | 1.06 | 32.6 | 2.86 | 29.8 | 1.61 | 14.4 | 2.95 | 20.6 | 1.23 | 18.8 | 0.337 | 16.2 |
| COc1c(C)c2c(c(O)c1C/C=C(\C)CCC(=O)OCCN1CCOCC1)C(=O)OC2 | 0.462 | > 100 | 0.201 | > 100 | 5.18 | > 100 | 1.12 | > 100 | 0.245 | > 100 | 0.11 | > 100 | 0.692 | > 100 | 0.39 | > 100 | 0.426 | > 100 | 0.415 | > 100 |
| COc1ccc(C2=NN(C(=O)COc3ccc(Cl)cc3)C(O)(c3cc(F)c(Cl)cc3Cl)C2)cc1OC (stereo not given) | 16.1 | 30.6 | 1.62 | 3.48 | 2.31 | 13.2 | 2.68 | 7.86 | 4.74 | 17.8 | 5.69 | 16.6 | 1.63 | 3.41 | 3.91 | 13.3 | 2.75 | 10.7 | 1.25 | 3.73 |
| N=C1c2nc3n(c2C(=O)c2nc4n(c21)CCCC4)CCCC3 | 34.2 | > 100 | 0.235 | 0.504 | 52.8 | > 100 | 31 | > 84.3 | 1.37 | 3.86 | 5.75 | 48.7 | 1.83 | 3.39 | 3.74 | 12.8 | 2.22 | 4.94 | 1.5 | 2.9 |
| CCN(CC)CCOc1ccc(Nc2ncc3cc(-c4ccc(O)cc4)c(=O)n(C)c3n2)cc1 | 0.0791 | 24.8 | 0.983 | 16.1 | 12.9 | 31.1 | 14.6 | 40.3 | 12.7 | 36.2 | 1.4 | 2.81 | 1.59 | 17.2 | 15.4 | 30.5 | 3.33 | 16.5 | 12.9 | 26.3 |
| O=C(Nc1ccc(-n2cc(-c3ccncc3)c(-c3ccc(Cl)c(O)c3)n2)cc1)Nc1cc(C(F)(F)F)cc(C(F)(F)F)c1 | 2.13 | 5.43 | 1.77 | 3.45 | 1.34 | 3.99 | 2.94 | 8.84 | 2.13 | 4.91 | 1.51 | 2.98 | 1.2 | 2.81 | 1.79 | 3.37 | 1.49 | 3.22 | 1.78 | 3.34 |
| NCCCC(=O)Nc1ccncc1 | > 100 | > 100 | > 100 | > 100 | > 100 | > 100 | > 100 | > 100 | > 100 | > 100 | > 100 | > 100 | > 100 | > 100 | > 100 | > 100 | > 100 | > 100 | > 100 | > 100 |
